Test [1] deals with Brn-3a marked retinal ganglion cell. Description: Brn-3a immunochemical staining of retina, chronic intraocular pressure increase model. The class given is in vivo, rat. As to the method:
(§1) 0.05 cc/50 g of Tiletimine and Zolazepam-mixed medicament (Zoletil) and Xylazine (Rompum) were mixed at a ratio of 1:1 and then administered to 20 rats by intramuscular injection, thereby anesthetizing the rats. A limbus periphery was divided into four portions, each of which was then subjected to 2 mm dissection at an interval of 90 degrees, and then, two radial conjunctival excisions were performed on upper dissection periphery. […] After surgical isolation of vein, the vein was lifted up by using 3 mm-width spatula to be spaced apart from the peripheral tissue, and then, was subjected to electric ablation while being careful for the peripheral tissue not to have any thermal damage or any mechanical damage due to contact. Intraocular pressure was consecutively measured three or more times by using Tonopen (Solan, Fla., USA), and only reliable intraocular pressure values within 5 percentile were recorded. […] Before the operation, and 3 days, and 1, 2, 4, and 8 weeks after the operation, intraocular pressure was measured, and the rats were sacrificed to extract eyes therefrom, which were then subjected to tissue examination and immunechemical staining with respect to Brn-3a and CD11b, and a reverse transcription polymerase chain reaction was used to measure CD11b value in retinal tissue. […]

The next test deals with IL-1a. Description: Reverse transcription polymerase chain reaction on injured tissue of corneal chemical burn model, IL-1a. Conditions: third day and seventh day after keratoconjunctival chemical injury. It counts as in vivo, rat. The procedure:
(§2) Three days, and 1, 2, 4, and 8 weeks after injuring, corneal opacity and neoangiogenesis level were assessed in consideration of images of anterior ocular segment, and on the third day and the seventh day, the respective conjunctiva damaged parts were collected and then subjected to a reverse transcription polymerase chain reaction to assay expression of IL-1a, TGF-β, SDF-1, and caspase-3.
(§3) Tissues obtained from chronic intraocular pressure increase model and corneal chemical burn model were frozen, and then cut into small parts by using a fine knife. The tissue parts were treated with 1 ml of TRI reagent (Molecular Research Center, Inc.) and then, tissue and cell were lysed by homogenizer. The respective implication cDNA […] 0.2 mM dNTP, 10×buffer, 10 pmols primer, and 0.2 U Taq polymerase were mixed to obtain a volume of 20 μl, and then, PCR thermal cycler (a machine for PCR) was used for reaction for 5 minutes at 95° C., 40 second at 94° C., 40 seconds at 48 to 64° C., 40 seconds (35 cycles) at 72° C., and 10 minutes at 72° C. The amplified polymerase chain reaction product was identified by 1% agarose gel electrophoresis. β actin was used as a positive control for the polymerase chain reaction, and relative expression morphs of a target gene with respect to β actin expression were compared. […]

The subject of a further test is TGF-β. As to the kind of experiment: Reverse transcription polymerase chain reaction on injured tissue of corneal chemical burn model, TGF-β. It counts as in vivo, rat. Conditions: third day and seventh day after keratoconjunctival chemical injury. The procedure:
as §2, §3

The test system of the next test is glaucoma white rats. Description: Intraocular pressure change due to instillation in glaucoma white rats (day-time and night-time). It counts as in vivo, rat. The procedure: Male white rats were used to prepare an episcleral venous ablation glaucoma model. The rat was anesthetized and a limbus periphery was divided into four portions, each of which was then subjected to 2 mm dissection at an interval of 90 degrees, and then, two radial conjunctival excisions were performed on upper dissection periphery. […] Episcleral vein is distinguishable because it is located […] than extra ocular muscle, has relatively low fluidity and a relatively large diameter, contains darker blood in vessel, and is connected to peripheral venous plexus. After surgical isolation of vein, the vein was lifted up by using 3 mm-width wooden spatula to be spaced apart from the peripheral tissue, and then, was subjected to electric ablation while being careful for the peripheral tissue not to have any thermal injury or any mechanical injury due to the contact. After the operation, a chloramphenical ophthalmic agent was administered thereto. Intraocular pressure was consecutively measured three or more times by using Tonopen (Solan, Fla., USA), and only reliable intraocular pressure values within 5% or less were recorded. Only used were rats that had higher intraocular pressure than that before the operation by 5 mmHg or more when measured on the first day, the third day, one week and two weeks before and after operation.
Also, steroid-induced glaucoma model was prepared as follows: 1% prednisolone was instilled twice a day in an amount of 4 μl for 30 days, and only rats that had higher intraocular pressure by 5 mmHg or more before operation were used.
White rats were grouped as a physiological saline solution instillation group, an angiogenin (recombinant human angiogenin, R&D systems, USA) 50 μg/ml instillation group, an angiogenin fragment (angiogenin 108-122, SEQ ID NO: 1, BACHEM, USA) instillation group, and a latanoprost 50 μg/ml instillation group, and each group consisted of 6 rats, that is, 12 eyes. Instillation test was repeatedly performed on normal rats and glaucoma model rats. Ophthalmic agent was administered at 8 AM and 8 PM in an amount of 4 μl to compare day-time effects and night-time effects, and 1, 3, 6, 9, 12, and 24 hours after the instillation, intraocular pressure was measured.

The next test relates to CD11b. As to the kind of experiment: Reverse transcription polymerase chain reaction of CD11b in retinal tissue, chronic intraocular pressure increase model. The class given is in vivo. Conditions: seventh day after episcleral venous electric ablation, compared to the control and the normal rat group. As to the method: as §1
The next test concerns SDF-1. Description: Reverse transcription polymerase chain reaction on injured tissue of corneal chemical burn model, SDF-1. Conditions: third day and seventh day after keratoconjunctival chemical injury. It counts as in vivo, rat. The procedure:
as §2, §3

Experimental findings from patent US9855320B2, “Angiogenin for treatment of glaucoma” (CHUNG-ANG UNIVERSITY INDUSTRY-ACADEMIC COOPERATION …, priority 2011, dated 2018) are described below.

Take “angiogenin: recombinant human angiogenin (R&D systems); 14.4 kDa single chain protein of 123 amino acids, a ribonuclease inducing angiogenesis”: the “density of Brn-3a marked retinal ganglion cell” value in test [1] is “well maintained”. The “IL-1a expression compared to the control” value in the test on IL-1a is listed as “less expressed”. Moreover, the “TGF-β expression compared to the control” value with TGF-β is “less expressed”. Besides, the “time after instillation up to which significant intraocular pressure reduction effects were retained” value with glaucoma white rats (day-time instillation test) was “up to 6 hours”. The “time after instillation up to which intraocular pressure reduction effects were retained” value with glaucoma white rats (night-time instillation) is on record as “up to 12 hours”. The “CD11b expression in retina” value in the test on CD11b is listed as “significantly higher”. Further, the “SDF-1 expression compared to the control” value in the test with SDF-1 was “less expressed”.
